Measurements published in PubChem BioAssay (NCI).
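Values below derive from 48-hour exposures of cells grown in 96-well plates, with endpoints linearly interpolated between the two concentrations bracketing the appropriate inhibition level. GI50 = concentration required for 50% inhibition of growth. Definition used: TGI = concentration required for complete inhibition of growth.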

Tests used:
Assay in all cases: growth of human tumour cells (NCI), 48 h
LOX IMVI melanoma = tested on: LOX IMVI melanoma
SN12C renal = tested on: SN12C renal
MALME-3M melanoma = tested on: MALME-3M melanoma
DU-145 prostate = tested on: DU-145 prostate
HS 578T breast = tested on: HS 578T breast
SK-MEL-2 melanoma = tested on: SK-MEL-2 melanoma
OVCAR-4 ovarian = tested on: OVCAR-4 ovarian
CCRF-CEM leukemia = tested on: CCRF-CEM leukemia
NCI-H23 lung = tested on: NCI-H23 lung
786-0 renal = tested on: 786-0 renal
UO-31 renal = tested on: UO-31 renal
SR leukemia = tested on: SR leukemia
RXF 393 renal = tested on: RXF 393 renal
BT-549 breast = tested on: BT-549 breast
IGROV1 ovarian = tested on: IGROV1 ovarian
SNB-19 CNS = tested on: SNB-19 CNS
UACC-257 melanoma = tested on: UACC-257 melanoma
EKVX NSCLC = tested on: EKVX NSCLC
TK-10 renal = tested on: TK-10 renal
SK-MEL-5 melanoma = tested on: SK-MEL-5 melanoma
NCI-H226 lung = tested on: NCI-H226 lung
MDA-MB-231 breast = tested on: MDA-MB-231 breast
SF-539 CNS = tested on: SF-539 CNS
HOP-62 NSCLC = tested on: HOP-62 NSCLC
MDA-MB-468 breast = tested on: MDA-MB-468 breast
ACHN renal = tested on: ACHN renal
SK-MEL-28 melanoma = tested on: SK-MEL-28 melanoma
KM12 colon = tested on: KM12 colon
SF-295 CNS = tested on: SF-295 CNS
MDA-MB-435 = tested on: MDA-MB-435
A498 renal = tested on: A498 renal
HT29 colon = tested on: HT29 colon
M14 melanoma = tested on: M14 melanoma
MOLT-4 leukemia = tested on: MOLT-4 leukemia
UACC-62 melanoma = tested on: UACC-62 melanoma
HOP-92 NSCLC = tested on: HOP-92 NSCLC
K-562 leukemia = tested on: K-562 leukemia
HCT-15 colon = tested on: HCT-15 colon
NCI-H522 lung = tested on: NCI-H522 lung
HCC-2998 colon = tested on: HCC-2998 colon
NCI/ADR-RES ovarian = tested on: NCI/ADR-RES ovarian
OVCAR-8 ovarian = tested on: OVCAR-8 ovarian
RPMI-8226 leukemia = tested on: RPMI-8226 leukemia
SF-268 CNS = tested on: SF-268 CNS
NCI-H460 lung = tested on: NCI-H460 lung
A549 NSCLC = tested on: A549 NSCLC
OVCAR-3 ovarian = tested on: OVCAR-3 ovarian
COLO 205 colon = tested on: COLO 205 colon
CAKI-1 renal = tested on: CAKI-1 renal
PC-3 prostate = tested on: PC-3 prostate
SK-OV-3 ovarian = tested on: SK-OV-3 ovarian
T-47D breast = tested on: T-47D breast
MCF7 breast = tested on: MCF7 breast
OVCAR-5 ovarian = tested on: OVCAR-5 ovarian

Q: Which results are given for `COc1ccc(C(=O)/C=C/c2cc3c(cc2Br)OCO3)cc1S(N)(=O)=O`?
A: GI50 (LOX IMVI melanoma): 1.68 µM; TGI (LOX IMVI melanoma): 3.16 µM; GI50 (SN12C renal): 2.05 µM; TGI (SN12C renal): 5.32 µM; GI50 (MALME-3M melanoma): 11.6 µM; TGI (MALME-3M melanoma): 27 µM; GI50 (DU-145 prostate): 3.71 µM; TGI (DU-145 prostate): 12.7 µM; GI50 (HS 578T breast): 20.8 µM; TGI (HS 578T breast): > 100 µM; GI50 (SK-MEL-2 melanoma): 14.7 µM; TGI (SK-MEL-2 melanoma): 30.2 µM; GI50 (OVCAR-4 ovarian): 3.72 µM; TGI (OVCAR-4 ovarian): 32.3 µM; GI50 (CCRF-CEM leukemia): 6.67 µM; TGI (CCRF-CEM leukemia): 38.1 µM; GI50 (NCI-H23 lung): 4.24 µM; TGI (NCI-H23 lung): 28 µM; GI50 (786-0 renal): 3.68 µM; TGI (786-0 renal): 15.4 µM; GI50 (UO-31 renal): 2.64 µM; TGI (UO-31 renal): 12.8 µM; GI50 (SR leukemia): 1.54 µM; TGI (SR leukemia): 4.58 µM; GI50 (RXF 393 renal): 2.77 µM; TGI (RXF 393 renal): 17.5 µM; GI50 (BT-549 breast): 5.99 µM; TGI (BT-549 breast): 49 µM; GI50 (IGROV1 ovarian): 2.8 µM; TGI (IGROV1 ovarian): 12.7 µM; GI50 (SNB-19 CNS): 5.77 µM; TGI (SNB-19 CNS): 29.7 µM; GI50 (UACC-257 melanoma): 14.9 µM; TGI (UACC-257 melanoma): 42.7 µM; GI50 (EKVX NSCLC): 9.71 µM; TGI (EKVX NSCLC): 42.9 µM; GI50 (TK-10 renal): 14.6 µM; TGI (TK-10 renal): 36.3 µM; GI50 (SK-MEL-5 melanoma): 9.12 µM; TGI (SK-MEL-5 melanoma): 29.2 µM; GI50 (NCI-H226 lung): 2.8 µM; TGI (NCI-H226 lung): 10.9 µM; GI50 (MDA-MB-231 breast): 2.87 µM; TGI (MDA-MB-231 breast): 8.68 µM; GI50 (SF-539 CNS): 1.72 µM; TGI (SF-539 CNS): 3.27 µM; GI50 (HOP-62 NSCLC): 2.62 µM; TGI (HOP-62 NSCLC): > 100 µM; GI50 (MDA-MB-468 breast): 4.98 µM; TGI (MDA-MB-468 breast): 24.8 µM; GI50 (ACHN renal): 1.97 µM; TGI (ACHN renal): 4.11 µM; GI50 (SK-MEL-28 melanoma): 14.3 µM; TGI (SK-MEL-28 melanoma): 30.2 µM; GI50 (KM12 colon): 2.45 µM; TGI (KM12 colon): 6 µM; GI50 (SF-295 CNS): 6.21 µM; TGI (SF-295 CNS): 25.4 µM; GI50 (MDA-MB-435): 13.6 µM; TGI (MDA-MB-435): 37.5 µM; GI50 (A498 renal): 15.2 µM; TGI (A498 renal): 28.8 µM; GI50 (HT29 colon): 1.88 µM; TGI (HT29 colon): 3.66 µM; GI50 (M14 melanoma): 9.16 µM; TGI (M14 melanoma): 25.5 µM; GI50 (MOLT-4 leukemia): 2.3 µM; TGI (MOLT-4 leukemia): 7.68 µM; GI50 (UACC-62 melanoma): 4.07 µM; TGI (UACC-62 melanoma): 23.5 µM; GI50 (HOP-92 NSCLC): 5.46 µM; TGI (HOP-92 NSCLC): 23.5 µM; GI50 (K-562 leukemia): 0.445 µM; TGI (K-562 leukemia): 11.8 µM; GI50 (HCT-15 colon): 1.78 µM; TGI (HCT-15 colon): 3.79 µM; GI50 (NCI-H522 lung): 2.79 µM; TGI (NCI-H522 lung): 14.9 µM; GI50 (HCC-2998 colon): 5.39 µM; TGI (HCC-2998 colon): 24.2 µM; GI50 (NCI/ADR-RES ovarian): 2.3 µM; TGI (NCI/ADR-RES ovarian): 6 µM; GI50 (OVCAR-8 ovarian): 2.91 µM; TGI (OVCAR-8 ovarian): > 100 µM; GI50 (RPMI-8226 leukemia): 2.87 µM; TGI (RPMI-8226 leukemia): 10.6 µM; GI50 (SF-268 CNS): 5.33 µM; TGI (SF-268 CNS): 29.9 µM; GI50 (NCI-H460 lung): 3.95 µM; TGI (NCI-H460 lung): > 100 µM; GI50 (A549 NSCLC): 2.7 µM; TGI (A549 NSCLC): 10.5 µM; GI50 (OVCAR-3 ovarian): 2.55 µM; TGI (OVCAR-3 ovarian): 6.62 µM; GI50 (COLO 205 colon): 5.39 µM; TGI (COLO 205 colon): > 100 µM; GI50 (CAKI-1 renal): 4.55 µM; TGI (CAKI-1 renal): 23.9 µM; GI50 (PC-3 prostate): 6.7 µM; TGI (PC-3 prostate): 28.9 µM; GI50 (SK-OV-3 ovarian): 14.4 µM; TGI (SK-OV-3 ovarian): 34.1 µM; GI50 (T-47D breast): 5.99 µM; TGI (T-47D breast): 33 µM; GI50 (MCF7 breast): 3.84 µM; TGI (MCF7 breast): 19.5 µM; GI50 (OVCAR-5 ovarian): 2.65 µM; TGI (OVCAR-5 ovarian): 10.2 µM
